Measured values from US6251868A, “Method for treating a human immunodeficiency virus infection” (Teijin Limited, priority 1998, dated 2001).
Entries after “also recorded” stand apart in the source; their conditions may differ.

Key:
[1] = tested on: HIV-1 production of H-9/IIIB cells; experiment: HIV-1 p24 antigen production from H-9/IIIB cells at low, non-toxic doses; format: cell-based, HIV-1 (HIV-1IIIB); settings: for HIV-1 production (p24 antigen) of H-9/IIIB cells: days three and six
Protocol: H-9/IIIB cells were washed with PBS and seeded at a density of 2×10^5 /ml in RPMI-1640/10% FBS with or without 0.2or 0.4 mM of γ-GCE. Three and six days after initiation of experiments, culture supernatants were sampled and assayed, as described above. On day three, 72% of each cell suspension was removed, and fresh medium with a corresponding GSH pro-drug was added. Total HIV-1 p24 antigen production values on day six were deduced by multiplying raw values, on day six, with the dilution factor on day three.

[2] = tested on: HIV-1 strain NL-4-3 in H-9 cells; experiment: Acute HIV-1 infection of H-9 cells; format: cell-based, HIV-1 (NL4-3)
Protocol: Virus stocks of the HIV-1NL4-3strain were prepared and titered as described previously (Hum Gene Ther 1995; 6: 1561-1571). H-9 cells (3×10^5cells.) were suspended in 1 ml of growth medium with or without γ-GCE at a variety of concentrations, and seeded in a chamber of a 24-well tissue culture plate. Virus suspension containing 30 pg of HIV-1 p24 antigen was added to each chamber, for the initial infection. Infection was carried out overnight at 37° C., then the cells were washed once with PBS, and once more with growth medium. The supernatant of the final wash was saved as a day 0 time-point. Washed cells were resuspended with corresponding media for further incubation at 37° C. Once in three days, cell suspensions and supernatants were harvested for cell counting and HIV-1 p24 antigen quantification. Measurement of cell growth, viability, and virus production were performed as described in a previous subsection. On the days of harvest, 200 μl of cell suspension was left in each well, and 800 μl of fresh medium with corresponding concentrations of γ-GCE was added to support cell growth, except day 18, on which 400 μl of cell suspension was left and 600 μl of medium was added to each well. Cell numbers at each time-point were determined accordingly, based on the accumulation of dilution factors along with the frequency of passage.

[3] = tested on: uninfected human T-lymphoid cell-line, H-9; experiment: Viability and growth of uninfected H-9 cells (trypan-blue exclusion); format: cell-based; settings: for cell viability (percentage of viable cells): through 6 days of incubation
Protocol: Every two or three days, 50-80% of cell suspensions were removed, and the same amount of fresh medium, with the same concentrations of the compound to be analyzed were added for further incubation. At the same time-points, viable cells were counted for calculating the relative cell growth value, by the trypan-blue exclusion method. At the same time, cell viability was also monitored as the percentage of viable cells in the total cell population.

[4] = tested on: HIV-1 production of H-9/IIIB cells; experiment: HIV-1 p24 antigen production from H-9/IIIB cells at 1.25 or 2.5 mM (ELISA); format: cell-based, HIV-1 (HIV-1IIIB); settings: for HIV-1 production (p24 antigen) from H-9/IIIB cells: days two and four; for production of HIV-1 from chronically infected cells: high doses, up to a concentration of 2.5 mM
Protocol: H-9/IIIB cells were washed thoroughly with phosphate-buffered saline (PBS) and resuspended at a density of 1×10^5 /ml in RPMI-1640/10% FBS with or without 1.25 or 2.5 mM of γ-GCE, GSH, or NAC. Since H-9/IIIB cells are constantly producing a large quantity of virus particles, stimulation with factors such as TNF-α or PMA were not required for carrying out these experiments. After two and four days, culture supernatant was removed, centrifuged to remove cells and debris, and evaluated by HIV-1 p24 antigen quantification. Measurement of the HIV-1 p24 antigen was performed by a sensitive enzyme-linked immunosorbant assay (ELISA) (DuPont).

[5] = tested on: HIV-1 virus stock (NL4-3); experiment: Direct inactivation of HIV-1 by pre-incubation, then acute infection of H9 cells; format: cell-based, HIV-1 (NL4-3); settings: for infectivity of HIV-1 after pre-incubation: 4 hours at 37° C., no viral production 15 days post-infection
Protocol: An HIV-1 virus stock (NL4-3) containing 6 ng of HIV-1 p24 antigen was pre-incubated in the presence or absence of γ-GCE in 20 ml of RPMI-1640/10% FBS for 4 hr at 37° C. Afterwards, acute infection of H9 cells were carried out, using […] of each pretreated virus suspension into 1 ml of the cell suspension without γ-GCE, as described in the previous subsection. Sampling and maintenance of cell culture were also performed, following the same procedure as described in the previous subsection, without adding any γ-GCE through passage.

[6] = tested on: H-9/IIIB cells (H-9 cells infected with HIV-1IIIB); experiment: Viability and growth of chronically HIV-1-infected H-9/IIIB cells (trypan-blue exclusion); format: cell-based, human
Protocol: The uninfected human T-lymphoid cell-line, H-9, or H-9 cells infected with an HIV-1 strain, HIV-1IIIB (H-9/IIIB) (Science 1984; 224:497-500), were seeded in 24 or 96 well tissue culture plates at a density of 2-2.5×10^5 /ml and maintained in RPMI-1640 tissue culture medium supplemented with 10% fetal bovine serum (FBS), with or without a variety of concentrations of γ-GCE, GSH, or NAC. Every two or three days, 50-80% of cell suspensions were removed, and the same amount of fresh medium, with the same concentrations of the compound to be analyzed were added for further incubation. At the same time-points, viable cells were counted for calculating the relative cell growth value, by the trypan-blue exclusion method. At the same time, cell viability was also monitored as the percentage of viable cells in the total cell population. […]

[7] = some decrease in relative cell growth, minimal decrease in viability after 6 days

Q: Which results are given for `CCOC(=O)[C@H](CS)NC(=O)CC[C@H](N)C(=O)O` [γ-GCE, γ-L-glutamyl-L-cysteine ethyl ester]?
A: HIV-1 production (p24 antigen) of H-9/IIIB cells ([1]; 200 μM): significantly inhibited; HIV-1 production (p24 antigen) of H-9/IIIB cells ([1]; 400 μM): significantly inhibited; viral production from chronically HIV1-expressing cells ([1]; lower concentrations (200-400 μM), viability not affected): significantly represses; propagation of HIV-1 (total HIV-1 p24 antigen) ([2]; 1.6 mM, 21 days postinfection): completely blocked; syncytia-formation ([2]; 1.6 mM, data not illustrated): not significantly observed; growth and viability of HIV-1-inoculated H-9 cells ([2]; 1.6 mM, entire experiments): continued to grow actively, maintaining high viability; acute infection (total HIV-1 p24 antigen) ([2]; 400-800 μM): not inhibited significantly; propagation of HIV-1 in acute infection of T-lymphocytic cells ([2]; relatively high doses): entirely blocked; effect on cell viability and growth of uninfected H-9 cells ([3]; 2.5 mM): unaffected; also recorded: no negative effects on cell viability and growth; concentration giving equivalent cytotoxic profile on H-9 cells [3, 7]: ~5000 µM; cell viability (percentage of viable cells) ([3]; uninfected H-9 cells, 2.5 mM): ≥ 90%; HIV-1 production (p24 antigen) from H-9/IIIB cells ([4]; 1.25 mM): almost completely shut-off; HIV-1 production (p24 antigen) from H-9/IIIB cells ([4]; 2.5 mM): almost completely shut-off; production of HIV-1 from chronically infected cells [4]: potently inhibits the production of HIV-1; propagation of HIV-1 in H-9 cells after pre-incubation of virus ([5]; 625 μM, 4 hours): only some delay of the onset; infectivity of HIV-1 after pre-incubation ([5]; 1.25 mM): completely inactivates; also recorded: loss of infectivity; infectivity of HIV-1 after pre-incubation ([5]; 2.5 mM): completely inactivates; also recorded: loss of infectivity; time in which infectivity of HIV-1 is directly inhibited ([5]; relatively high doses): within four hours; viral infectivity after pre-incubation ([5]; same concentrations (625 μM-2.5 mM), one hour, data not illustrated): did not show significant interference; discrepancy of the thresholds of the toxic doses between infected and uninfected cells [6]: more than ten-fold; cell viability of H-9/IIIB cells ([6]; 200 μM and 400 μM (either dose)): > 86%; cell growth of H-9/IIIB cells ([6]; 400 μM): Slower cell growth; cell growth of H-9/IIIB cells ([6]; 800 μM): dramatically impairs growth; also recorded: dramatically impaired; cell growth of H-9/IIIB cells ([6]; 800 μM, after 12 days of treatment): no significant cell growth; sensitivity of H-9/IIIB cells to γ-GCE relative to uninfected cells (selective toxicity) ([6]; 5 mM on H-9 vs 400 μM on H-9/IIIB, equivalent cytotoxic profiles): approximately 12.5 times; cell growth relative to control ([6]; H-9/IIIB, 800 μM, day six): less than 40 % of the control; concentration giving equivalent cytotoxic profile on H-9/IIIB cells [6, 7]: ~400 µM

Q: `N[C@@H](CCC(=O)N[C@@H](CS)C(=O)NCC(=O)O)C(=O)O` [GSH, glutathione] was tested. Which “effect on cell viability and growth of uninfected H-9 cells” value ([3]; 2.5 mM) did it give?
A: no negative effects on growth

Q: What about the “cell viability (percentage of viable cells)” value ([3]; uninfected H-9 cells, 2.5 mM) of the same compound?
A: ≥ 90%

Q: And the “HIV-1 production (p24 antigen) from H-9/IIIB cells” value ([4]; 1.25 mM)?
A: neither GSH (triangles) nor NAC (rectangles) can overwhelm the vigorous HIV-1 production; also recorded: Neither GSH nor NAC could overwhelm the vigorous HIV-1 production; also recorded: did not alter viral expression

Q: What about the “HIV-1 production (p24 antigen) from H-9/IIIB cells” value ([4]; 2.5 mM) of the same compound?
A: increased the virus production

Q: And the “production of HIV-1 from chronically infected cells” value [4]?
A: neither GSH nor other GSH precursors show inhibitory effects

Q: How did the “effect on cell viability and growth of uninfected H-9 cells” value ([3]; 2.5 mM) turn out when `CC(=O)N[C@@H](CS)C(=O)O` [NAC, N-acetylcysteine] was run?
A: no negative effects on growth

Q: And the “cell viability, lowest value” ([3]; uninfected H-9 cells, 2.5 mM, Day 4)?
A: 91.75±0.45%

Q: What about the “cell viability (percentage of viable cells)” value ([3]; uninfected H-9 cells, 2.5 mM) of the same compound?
A: ≥ 90%

Q: And the “HIV-1 production (p24 antigen) from H-9/IIIB cells” value ([4]; 1.25 mM)?
A: neither GSH (triangles) nor NAC (rectangles) can overwhelm the vigorous HIV-1 production; also recorded: Neither GSH nor NAC could overwhelm the vigorous HIV-1 production; also recorded: did not alter viral expression

Q: And the “HIV-1 production (p24 antigen) from H-9/IIIB cells” value ([4]; 2.5 mM)?
A: increased the virus production
